Columns and labels:
MCF10A-HER2 spheroids = test: Morphogenesis assay in Matrigel: luminal filling and cleaved Caspase-3 staining by confocal microscopy; assay type: cell-based, human; settings: spheroids grown 4 days, then 10058-F4 1 μM, FIG. 4G; for luminal filling: LY-294002 2 μM or U0126 1 μM for up to 4 additional days, day 8; for Caspase-3 activation: LY-294002 2 μM or U0126 1 μM, imaged on day 6
[1] = system: Notch pathway genes in MCF10A-HER2 spheroids; settings: U0126 1 μM, up to five days, lumen-filled spheroids; FIG. 2C

Row | Compound | luminal filling (MCF10A-HER2 spheroids) | Caspase-3 activation (MCF10A-HER2 spheroids) | transcriptional induction of the Notch pathway (qRT-PCR) [1]
1 | N#CC(=C(/N)Sc1ccccc1N)/C(C#N)=C(\N)Sc1ccccc1N [U0126] | significant inhibition | markedly enhanced | contributes to the transcriptional induction of the Notch pathway
2 | CCc1ccc(/C=C2/SC(=S)NC2=O)cc1 [10058-F4] | significant inhibition | markedly enhanced | 

From patent US9415103B2, “Combination therapy to prevent DCIS formation and progression to breast cancer” (Yeda Research and Development Co. Ltd., priority 2011, dated 2016)
